Measurements reported in article PMC9584815, “The aldolase inhibitor aldometanib mimics glucose starvation to activate lysosomal AMPK” (Nature Metabolism, 2022).
Changes are numbered by the printed parent chain.

Columns and labels:
rabbit aldolase (ALDOA) = target: T1, rabbit aldolase (ALDOA) (Oryctolagus cuniculus, UniProt P00883); assay: SPR (CM5 chip, Biacore 8K); also MS adduct on Lys230 and enzymatic inhibition (IC50 about […]); format: binding
T1 construct: rabbit aldolase (ammonium sulfate precipitated; A8811)
T1 sequence (P00883 2-364): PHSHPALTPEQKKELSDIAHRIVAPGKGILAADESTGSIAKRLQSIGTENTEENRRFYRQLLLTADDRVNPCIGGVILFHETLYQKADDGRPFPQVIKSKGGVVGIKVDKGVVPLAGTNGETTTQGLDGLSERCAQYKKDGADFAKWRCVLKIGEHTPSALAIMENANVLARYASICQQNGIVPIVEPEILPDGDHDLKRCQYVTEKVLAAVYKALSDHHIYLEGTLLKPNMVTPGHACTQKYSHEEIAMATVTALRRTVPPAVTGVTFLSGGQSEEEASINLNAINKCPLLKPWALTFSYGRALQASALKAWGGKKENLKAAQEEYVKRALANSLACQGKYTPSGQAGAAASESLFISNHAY

ALDOA = target: T2, ALDOA (Homo sapiens, UniProt P04075); assay: aldolase/TPI/GPDH-coupled NADH assay; format: biochemical
T2 construct: full-length, His-tagged, bacterially expressed and purified
T2 sequence (P04075 2-364): T1 sequence (P00883 2-364) with H2Y, S3Q, H4Y, Y243F, V267I, I358V

In the case of `CCCCCCCCCCCCCCCCn1cc[n+](Cc2c(Cl)cccc2Cl)c1C` [LXY-05-029, aldometanib], the Kd (rabbit aldolase (ALDOA)) is reported as roughly 20 µM and the IC50 (ALDOA) is reported as roughly 50 µM.
